From PubChem BioAssay AID1053141 (Broad Institute, 2014) come the findings set out here.

Assay [1] concerns HEK293T viability, CellTiter-Glo ATP luminescence, 72 h. Kind of assay: HEK293T cell cytotoxicity, dose response, cytotoxicity control, ATP luminescence, dry powder, set 19 (AID 1053141).
Assay in assay [2]: as above
As to conditions: HEK293T viability, CellTiter-Glo ATP luminescence, 72 h. For orientation: Cellular ATP, detected with luciferase, serves as a proxy for viable cell number.

Results filed as inconclusive are left out. Calls of active or inactive are those of the source.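 Rule for the calls: active = compounds lowering cell ATP signal, with AC50 no higher than twice their own top valid dose; inconclusive = flat curve with 30 to 70% signal loss, or poor fit; inactive = the rest, including signal rises.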

One may read the AC50 as the concentration at which the activity in the assay is half-maximal. In the case of `CO[C@H]1CN(C)C(=O)c2cc(NC(=O)NC(C)C)ccc2OC[C@H](C)N(Cc2ccc(-c3ccccn3)cc2)C[C@@H]1C`, in assay [1], the half-maximal activity concentration (AC50) is 27 µM.
Turning to `CCCC(=O)Nc1ccc2c(c1)OC[C@H](C)N(Cc1ccc(-c3ccccn3)cc1)C[C@H](C)[C@@H](OC)CN(C)C2=O`, the activity change, negative = cytotoxicity in assay [2] (at 26 µM (top of the series)) was 4.89% (inactive).
In the case of `CO[C@H]1CN(C)C(=O)c2cc(NC(=O)NC(C)C)ccc2OC[C@H](C)N(Cc2ccccc2)C[C@@H]1C`, the AC50 in assay [1] is 44.5 µM.
Consider `CO[C@H]1CN(C)C(=O)c2ccc(NC(=O)NC(C)C)cc2OC[C@H](C)N(Cc2ccccc2)C[C@@H]1C`, for which the activity change, negative = cytotoxicity in assay [2] (at 26 µM (top of the series)) is 94.8% (inactive).
The same measure, in the same setting: next, `CO[C@H]1CN(C)C(=O)c2ccc(NC(=O)NC(C)C)cc2OC[C@H](C)N(Cc2ccc(-c3ccccn3)cc2)C[C@@H]1C`: -6.54% (inactive).
Take `CO[C@H]1CN(C)C(=O)c2cc(NC(=O)NC(C)C)ccc2OC[C@H](C)N(Cc2ccncc2)C[C@@H]1C`: in assay [2] (at 50 µM (top of the series)), the activity change, negative = cytotoxicity is -29.6% (inactive).
As for `CCCNC(=O)Nc1ccc2c(c1)OC[C@H](C)N(Cc1ccccc1)C[C@H](C)[C@@H](OC)CN(C)C2=O`, the activity change, negative = cytotoxicity in assay [2] (at 26 µM (top of the series)) is 49.2% (inactive).
In the case of `CO[C@H]1CN(C)C(=O)c2cc(NC(=O)C(C)C)ccc2OC[C@H](C)N(Cc2ccc(-c3ccccn3)cc2)C[C@@H]1C`, the AC50 in assay [1] was 52.3 µM.
On to `CO[C@H]1CN(C)C(=O)c2cc(NC(=O)NC(C)C)ccc2OC[C@H](C)NC[C@@H]1C`, for which, in assay [1], the AC50 was > 100 µM (inactive).
Still for that read-out and setting: next, `CO[C@H]1CN(C)C(=O)c2cc(NC(=O)NC(C)C)ccc2OC[C@H](C)N(Cc2ccc(-c3cccnc3)cc2)C[C@@H]1C`: 37.7 µM.
Same read-out and setting: the result for `CO[C@H]1CN(C)C(=O)c2cc(NC(=O)NC(C)C)ccc2OC[C@H](C)N(Cc2cccc(F)c2)C[C@@H]1C` reads 35.8 µM; that for `CO[C@H]1CN(C)C(=O)c2cc(NC(=O)NC(C)C)ccc2OC[C@H](C)N(Cc2ccccc2F)C[C@@H]1C`, 27.4 µM.
Consider `CCCNC(=O)Nc1ccc2c(c1)OC[C@H](C)N(Cc1ccc(-c3ccccn3)cc1)C[C@H](C)[C@@H](OC)CN(C)C2=O`, for which the activity change, negative = cytotoxicity in assay [2] (at 26 µM (top of the series)) was 12.5% (inactive).
For `CO[C@H]1CN(C)C(=O)c2cc(NC(=O)NC(C)C)ccc2OC[C@H](C)N(Cc2ccc(-c3ccncc3)cc2)C[C@@H]1C`, the AC50 in assay [1] was 30.7 µM.
The same measure, in the same setting: next, `CO[C@H]1CN(C)C(=O)c2cc(NC(=O)NC(C)C)ccc2OC[C@H](C)N(Cc2ccc(F)cc2)C[C@@H]1C`: 29.7 µM; `CCCC(=O)Nc1ccc2c(c1)OC[C@H](C)N(Cc1ccccc1)C[C@H](C)[C@@H](OC)CN(C)C2=O`: > 52 µM (inactive); `CO[C@H]1CN(C)C(=O)c2cc(Nc3c(NC4CCCC4)c(=O)c3=O)ccc2OC[C@H](C)N(Cc2ccc(-c3ccccn3)cc2)C[C@@H]1C`: 13.8 µM.
Regarding `CO[C@H]1CN(C)C(=O)c2cc(NC(=O)NC(C)C)ccc2OC[C@H](C)N(Cc2cccnc2)C[C@@H]1C`, the activity change, negative = cytotoxicity in assay [2] (at 50 µM (top of the series)) is 30.5% (inactive).
On to `CCC(CC)Nc1c(Nc2ccc3c(c2)C(=O)N(C)C[C@H](OC)[C@@H](C)CN(Cc2ccc(-c4ccccn4)cc2)[C@@H](C)CO3)c(=O)c1=O`, for which the AC50 in assay [1] is 39.8 µM.
As for `CO[C@H]1CN(C)C(=O)c2cc(NC(=O)NC(C)C)ccc2OC[C@H](C)N(Cc2ccccn2)C[C@@H]1C`, in assay [2] (at 50 µM (top of the series)), the activity change, negative = cytotoxicity was 43.7% (inactive).
The same measure, in the same setting: next, `CO[C@H]1CN(C)C(=O)c2cc(NC(=O)NC(C)C)ccc2OC[C@H](C)N(C(=O)c2ccc(-c3ccccn3)cc2)C[C@@H]1C`: -14% (inactive); `CO[C@H]1CN(C)C(=O)c2cc(NC(=O)NC(C)C)ccc2OC[C@H](C)N(Cc2cncnc2)C[C@@H]1C`: 24.6% (inactive).
Turning to `CO[C@H]1CN(C)C(=O)c2cc(NC(=O)NC(C)C)ccc2OC[C@H](C)N(C(=O)Nc2ccc(-c3ccccn3)cc2)C[C@@H]1C`, the AC50 in assay [1] was > 100 µM (inactive).
With `CO[C@H]1CN(C)C(=O)c2cc(NC(=O)NC(C)C)ccc2OC[C@H](C)N(C(=O)c2ccccc2)C[C@@H]1C`, the activity change, negative = cytotoxicity in assay [2] (at 50 µM (top of the series)) was 13.8% (inactive).
With `CO[C@H]1CN(C)C(=O)c2cc(Nc3c(NC4CC4)c(=O)c3=O)ccc2OC[C@H](C)N(Cc2ccc(-c3ccccn3)cc2)C[C@@H]1C`, in assay [1], the AC50 is 15 µM.
On the same count and under the same terms, next, `CO[C@H]1CN(C)C(=O)c2cc(Nc3ncccn3)ccc2OC[C@H](C)N(Cc2ccc(-c3ccccn3)cc2)C[C@@H]1C`: 24.5 µM.
